Data: ChEMBL document CHEMBL1201862, “PubChem BioAssay data set” (2004)
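Tested at 5 concentrations; 48 h exposure; 96-well plates; endpoints linearly interpolated, else capped at highest concentration. At the GI50, growth is halved.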 Active and inactive are the calls of the source. Rule as the data show it: active = GI50 up to about 1.1 µM and inactive = higher.

Experiments:
Test in all cases: NCI tumour cell line growth inhibition, 48 h
[1] = tested on: M19-MEL
[2] = tested on: DMS-273
[3] = tested on: RXF 631
[4] = tested on: KM-20L2
[5] = tested on: DMS-114
[6] = tested on: SNB-78
[7] = tested on: HOP-18
[8] = tested on: XF498
[9] = tested on: DLD-1

Row | Compound | GI50 [1] | GI50 [2] | GI50 [3] | GI50 [4] | GI50 [5] | GI50 [6] | GI50 [7] | GI50 [8] | GI50 [9]
1 | O=C1Cc2ccccc2N1/N=C\c1ccc(O)cc1 | > 100 µM (inactive) | > 100 µM (inactive) | > 100 µM (inactive) | > 100 µM (inactive) | 21.8 µM (inactive) | > 100 µM (inactive) | > 100 µM (inactive) | > 100 µM (inactive) | 
2 | C[C@@]1(Cc2ccccc2)C(=O)N2[C@@H](CO)C(c3ccccc3)O[C@]2(C)c2ccccc21 (stereo partly drawn) | > 100 µM (inactive) | > 100 µM (inactive) |  | > 100 µM (inactive) | > 100 µM (inactive) | > 100 µM (inactive) |  |  | > 100 µM (inactive)
3 | CC(=O)OCC(=O)[C@@]1(O)CC[C@H]2[C@@H]3C[C@H](C)C4=CC(=O)C=C[C@]4(C)[C@@]3(F)[C@@H](O)C[C@@]21C | > 100 µM (inactive) | > 100 µM (inactive) | > 100 µM (inactive) | > 100 µM (inactive) | > 100 µM (inactive) | > 100 µM (inactive) |  | > 100 µM (inactive) | > 100 µM (inactive)
4 | COC(=O)C(C)Oc1ccc(O)cc1 (stereo not drawn) | > 100 µM (inactive) | > 100 µM (inactive) | > 100 µM (inactive) | > 100 µM (inactive) | 19.6 µM (inactive) | > 100 µM (inactive) | > 100 µM (inactive) |  | > 100 µM (inactive)
5 | CC(C)=Cc1cc(C(=O)Nc2ccc(Cl)c(Cl)c2)nc(N)n1 | > 100 µM (inactive) | > 100 µM (inactive) | > 100 µM (inactive) | > 100 µM (inactive) | > 100 µM (inactive) | > 100 µM (inactive) | 78.3 µM (inactive) | > 100 µM (inactive) | > 100 µM (inactive)
6 | O=C(OCc1ccccc1)N1N=NC2C3CC(OCc4ccccc4)(OCc4ccccc4)C(O3)C21 (stereo not drawn) | 24.4 µM (inactive) | 15.5 µM (inactive) | 46 µM (inactive) | 40.7 µM (inactive) | 8.99 µM (inactive) | 43.7 µM (inactive) | 20.6 µM (inactive) | 22.7 µM (inactive) | 16.9 µM (inactive)
7 | CCOC(=O)C(=O)C=P(c1ccccc1)(c1ccccc1)c1ccccc1 | > 100 µM (inactive) | > 100 µM (inactive) | > 100 µM (inactive) | > 100 µM (inactive) | > 100 µM (inactive) | > 100 µM (inactive) | > 100 µM (inactive) |  | > 100 µM (inactive)
8 | O=C1c2ccccc2C(=O)c2c1ccc(O)c2O [ATHRAQUINONES A] | 72.4 µM (inactive) | 35.9 µM (inactive) |  |  |  |  |  | 39.1 µM (inactive) | 43.4 µM (inactive)
9 | COC[n+]1cc2cc(OC)c(OC)cc2c2ccc3cc(OC)c(OC)cc3c21 | > 100 µM (inactive) |  | > 100 µM (inactive) | > 100 µM (inactive) | > 100 µM (inactive) | > 100 µM (inactive) | > 100 µM (inactive) |  | > 100 µM (inactive)
10 | COc1ccc(OC)c(N2CC(N)C2=O)c1 (stereo not drawn) | > 100 µM (inactive) | > 100 µM (inactive) | > 100 µM (inactive) | > 100 µM (inactive) |  |  | > 100 µM (inactive) | > 100 µM (inactive) | 
11 | O=[PH](O)c1ccccn1 | > 100 µM (inactive) | > 100 µM (inactive) |  | > 100 µM (inactive) | > 100 µM (inactive) | > 100 µM (inactive) |  | > 100 µM (inactive) | > 100 µM (inactive)
12 | C#CCN(Cc1ccc2nc(-c3ccccc3)c(Cl)nc2c1)c1cc(OC)c(OC)c(OC)c1 | > 100 µM (inactive) | 99.5 µM (inactive) | > 100 µM (inactive) | > 100 µM (inactive) | 14.3 µM (inactive) | > 100 µM (inactive) | > 100 µM (inactive) |  | > 100 µM (inactive)
13 | COC1C(OC(=O)/C=C/C=C/C=C/C=C\C(=O)O)CCC2(CO2)C1C1(C)OC1CC=C(C)C (stereo not drawn) | > 100 µM (inactive) | > 100 µM (inactive) | > 100 µM (inactive) | > 100 µM (inactive) | > 100 µM (inactive) |  |  | > 100 µM (inactive) | > 100 µM (inactive)
14 | O=C1C2c3[nH]c4ccccc4c3C3CCCC3C2C(=O)N1c1ccccc1 (stereo not drawn) | > 100 µM (inactive) | > 100 µM (inactive) |  |  | > 100 µM (inactive) | > 100 µM (inactive) |  | 12 µM (inactive) | > 100 µM (inactive)
15 | CNc1nc(N)cc(O)n1 | > 100 µM (inactive) | > 100 µM (inactive) |  | > 100 µM (inactive) | > 100 µM (inactive) | > 100 µM (inactive) |  |  | > 100 µM (inactive)
16 | CC(C)COC(=O)c1ccc(/N=C\c2ccc(/C=N/c3ccc(C(=O)OCC(C)C)cc3)cc2)cc1 | > 100 µM (inactive) | > 100 µM (inactive) | > 100 µM (inactive) | > 100 µM (inactive) |  | > 100 µM (inactive) |  | > 100 µM (inactive) | > 100 µM (inactive)
17 | O=C(CCc1ccccc1)On1nnc2ccccc2c1=O | > 100 µM (inactive) | > 100 µM (inactive) |  | > 100 µM (inactive) | > 100 µM (inactive) | > 100 µM (inactive) |  |  | > 100 µM (inactive)
18 | O=C(/C=C/c1ccccc1O)c1ccc([N+](=O)[O-])cc1 | 18.4 µM (inactive) | 15.2 µM (inactive) | 18.7 µM (inactive) | 18.8 µM (inactive) | 10.3 µM (inactive) | 20.9 µM (inactive) | 30.1 µM (inactive) | 16.9 µM (inactive) | 12.9 µM (inactive)
19 | NCCNC(=O)c1cccc2cc3ccccc3nc12 | 1.79 µM (inactive) | 2.3 µM (inactive) | 4.47 µM (inactive) | 1.61 µM (inactive) | 1.77 µM (inactive) | 8.63 µM (inactive) | 14.7 µM (inactive) | 2.04 µM (inactive) | 2.77 µM (inactive)
20 | CN(C)CC(/C(Cc1ccccc1)=N\NC(=O)c1ccncc1)c1ccccc1 (stereo not drawn) | 30.1 µM (inactive) |  | 40.7 µM (inactive) | 27 µM (inactive) | 22.5 µM (inactive) |  |  | 29.4 µM (inactive) | 49.1 µM (inactive)
21 | COc1c(Br)cc(Br)c(OC)c1-c1[nH]c(Br)c(Br)c1Br | 10.2 µM (inactive) | 6.9 µM (inactive) | 6.64 µM (inactive) | 8.87 µM (inactive) | 4.8 µM (inactive) | 11.1 µM (inactive) | 2.54 µM (inactive) | 2.27 µM (inactive) | 5.26 µM (inactive)
22 | COc1cc([C@@H]2c3cc4c(cc3[C@@H](OC(=O)c3ccccc3)C3COC(=O)[C@@H]32)OCO4)cc(OC)c1O (stereo partly drawn) | < 0.01 µM (active) | < 0.01 µM (active) | < 0.01 µM (active) | 0.0128 µM (active) | < 0.01 µM (active) |  | > 100 µM (inactive) |  | 
23 | O=C(N[C@@H]1C=CCC[C@@H]1c1ccccc1)OCc1ccccc1 | 21.5 µM (inactive) | 16.4 µM (inactive) |  | 20 µM (inactive) | 21.7 µM (inactive) | 32.5 µM (inactive) | 19.2 µM (inactive) | 19 µM (inactive) | 23.7 µM (inactive)
24 | Nc1nc(Cl)cc(NCCCCCCCCCCNc2cc(Cl)nc(N)n2)n1 | 7.4 µM (inactive) | 4.35 µM (inactive) | 5.3 µM (inactive) | 5.21 µM (inactive) |  | 0.0638 µM (active) | 58.3 µM (inactive) | 1.25 µM (inactive) | 6.5 µM (inactive)
25 | C[C@H](CCC1SC1(C)C)C1CCC2(C)C3=C(CC[C@]12C)[C@@]1(C)CC[C@H](O)C(C)(C)C1CC3 (stereo partly drawn) |  | > 100 µM (inactive) |  | > 100 µM (inactive) | > 100 µM (inactive) |  | > 100 µM (inactive) | > 100 µM (inactive) | > 100 µM (inactive)
26 | C1CN2N3CCCC23C1 (stereo not drawn) | > 100 µM (inactive) | > 100 µM (inactive) |  | > 100 µM (inactive) | > 100 µM (inactive) | > 100 µM (inactive) | > 100 µM (inactive) | > 100 µM (inactive) | > 100 µM (inactive)
27 | Cc1ccc2nc(NC(=O)C(=O)C(C#N)c3ccc(Cl)cc3)sc2c1 (stereo not drawn) | > 50 µM (inactive) | > 50 µM (inactive) |  | > 50 µM (inactive) | > 50 µM (inactive) | > 50 µM (inactive) | 0.265 µM (active) | > 50 µM (inactive) | 
28 | COc1cc(/C=C(\NC(=O)c2ccccc2)c2nc3cncnc3[nH]2)cc(OC)c1OC | > 100 µM (inactive) | > 100 µM (inactive) | > 100 µM (inactive) | > 100 µM (inactive) |  | > 100 µM (inactive) |  | > 100 µM (inactive) | > 100 µM (inactive)
